Measured values reported in patent US6476021B1 (priority 1997, dated 2002).
pIC50: −log10 of the molar value. Where a name gives a salt, the structure may show the parent alone. Blank lines part the entries; values can stand above or below the molecule they belong to.

Experiments:
[1] = rat, in vivo, 100 mg/kg
PDE type V = PDE type V (Canis lupus familiaris, UniProt O77746); test: biochemical
PDE type VI = PDE type VI (Bos taurus, UniProt P11541+P23439); test: biochemical
in vivo = conditions: male, Wistar, rat, plasma, inhaled or intranasal, 0.3 mg/kg
Text: (§1) Eight-week-old male Wistar rats were anesthetized with intraperitoneal injection of urethane at 1 g/kg. The cervical portion was incised so that the trachea was exposed, and a polyethylene tube (SP120, Natsume) was inserted into the trachea. Then, a part of the esophagus was incised and a polyethylene tube with the same diameter was inserted into postnasal cavity, the tip was closed with absorbent cotton and glue. Leak of the drug solution from the nasoplatine was avoided by closing it with synthetic glue. Drugs were dissolved in 0.1% tartaric acid solution and administered through the nostrils at 500 μl/kg with micropipette and the nostrils were rapidly closed with glue. For the control, drugs were intravenously administered to rats. Constant volume of blood was intermittently collected from the tail vein into heparinized capillary after administration, and plasma was separated by centrifugation. Constant volume of plasma was extracted with t-butyl-methyl-ether three times and the organic phase was evaporated and dissolved in the HPLC initial phase. Constant volume of the organic phase was applied to the HPLC system equipped with an ultraviolet detector, and plasma drug concentration was determined with the reverse phase column. The time to reach the maximal concentration (Tmax), the mean residence time (MRT) and the mean absorption time (MAT) were calculated from measured values.

[2] = rats
Text: as §1

[3] = intranasal administration
PDE type III = PDE type III (Canis lupus familiaris, UniProt A0A8I3NYE0); conditions: read-out: Inhibition Activity IC50 Type III; PDE type III from canine aorta; 1 μM substrate
PDE type III, sequence (A0A8I3NYE0 1-1135): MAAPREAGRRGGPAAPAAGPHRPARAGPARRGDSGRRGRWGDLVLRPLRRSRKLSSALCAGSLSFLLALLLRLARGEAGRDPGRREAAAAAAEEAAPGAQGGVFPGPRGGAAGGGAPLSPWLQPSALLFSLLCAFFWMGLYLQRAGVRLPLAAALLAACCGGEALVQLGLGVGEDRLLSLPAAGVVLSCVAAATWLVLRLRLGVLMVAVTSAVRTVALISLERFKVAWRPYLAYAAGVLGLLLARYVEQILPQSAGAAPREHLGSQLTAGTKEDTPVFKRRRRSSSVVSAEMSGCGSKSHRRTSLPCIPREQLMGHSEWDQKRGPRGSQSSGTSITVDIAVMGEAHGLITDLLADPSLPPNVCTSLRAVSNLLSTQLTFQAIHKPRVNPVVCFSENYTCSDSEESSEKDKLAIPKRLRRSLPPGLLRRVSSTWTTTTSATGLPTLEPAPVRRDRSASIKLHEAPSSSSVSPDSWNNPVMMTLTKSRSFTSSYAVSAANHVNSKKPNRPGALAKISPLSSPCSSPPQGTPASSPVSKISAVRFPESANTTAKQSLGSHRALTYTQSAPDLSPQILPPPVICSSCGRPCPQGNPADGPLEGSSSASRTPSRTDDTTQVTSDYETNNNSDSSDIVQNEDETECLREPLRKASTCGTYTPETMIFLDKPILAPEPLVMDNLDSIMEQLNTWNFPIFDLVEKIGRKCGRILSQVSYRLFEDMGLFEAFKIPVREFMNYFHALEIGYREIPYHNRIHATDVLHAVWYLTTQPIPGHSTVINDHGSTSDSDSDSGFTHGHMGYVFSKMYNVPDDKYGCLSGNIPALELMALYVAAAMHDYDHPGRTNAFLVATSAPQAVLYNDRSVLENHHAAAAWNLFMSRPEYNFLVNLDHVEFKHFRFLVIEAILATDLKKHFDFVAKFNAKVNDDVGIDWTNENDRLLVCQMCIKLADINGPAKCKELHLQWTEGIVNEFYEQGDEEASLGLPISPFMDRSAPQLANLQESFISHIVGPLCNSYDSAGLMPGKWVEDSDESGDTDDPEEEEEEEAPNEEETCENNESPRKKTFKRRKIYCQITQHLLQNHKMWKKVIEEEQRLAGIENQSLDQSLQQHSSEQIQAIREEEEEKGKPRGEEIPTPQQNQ

PDE type VI, sequence (P11541 2-856): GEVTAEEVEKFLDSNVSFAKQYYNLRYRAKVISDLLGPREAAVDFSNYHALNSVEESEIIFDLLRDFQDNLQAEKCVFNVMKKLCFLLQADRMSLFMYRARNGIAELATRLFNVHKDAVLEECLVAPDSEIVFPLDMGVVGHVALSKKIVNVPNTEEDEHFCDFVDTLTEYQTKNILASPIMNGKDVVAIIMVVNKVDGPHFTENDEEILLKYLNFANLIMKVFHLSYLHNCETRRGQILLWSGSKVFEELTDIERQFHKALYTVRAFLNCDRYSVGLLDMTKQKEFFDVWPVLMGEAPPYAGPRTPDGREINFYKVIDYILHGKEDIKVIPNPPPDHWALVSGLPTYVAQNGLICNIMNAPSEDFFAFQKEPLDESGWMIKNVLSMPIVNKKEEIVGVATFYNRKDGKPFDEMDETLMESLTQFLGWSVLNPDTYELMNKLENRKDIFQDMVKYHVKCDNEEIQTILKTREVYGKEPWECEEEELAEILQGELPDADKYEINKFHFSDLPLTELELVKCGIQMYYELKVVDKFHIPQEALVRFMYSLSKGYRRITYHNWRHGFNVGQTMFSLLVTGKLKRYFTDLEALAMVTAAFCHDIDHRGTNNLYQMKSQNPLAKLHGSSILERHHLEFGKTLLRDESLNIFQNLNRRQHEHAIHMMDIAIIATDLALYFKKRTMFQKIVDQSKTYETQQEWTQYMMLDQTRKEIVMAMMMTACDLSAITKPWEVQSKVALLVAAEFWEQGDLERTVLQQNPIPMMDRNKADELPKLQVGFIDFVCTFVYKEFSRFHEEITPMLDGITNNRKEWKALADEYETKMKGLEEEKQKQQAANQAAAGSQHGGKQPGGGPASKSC
PDE type VI, sequence (P23439 2-850): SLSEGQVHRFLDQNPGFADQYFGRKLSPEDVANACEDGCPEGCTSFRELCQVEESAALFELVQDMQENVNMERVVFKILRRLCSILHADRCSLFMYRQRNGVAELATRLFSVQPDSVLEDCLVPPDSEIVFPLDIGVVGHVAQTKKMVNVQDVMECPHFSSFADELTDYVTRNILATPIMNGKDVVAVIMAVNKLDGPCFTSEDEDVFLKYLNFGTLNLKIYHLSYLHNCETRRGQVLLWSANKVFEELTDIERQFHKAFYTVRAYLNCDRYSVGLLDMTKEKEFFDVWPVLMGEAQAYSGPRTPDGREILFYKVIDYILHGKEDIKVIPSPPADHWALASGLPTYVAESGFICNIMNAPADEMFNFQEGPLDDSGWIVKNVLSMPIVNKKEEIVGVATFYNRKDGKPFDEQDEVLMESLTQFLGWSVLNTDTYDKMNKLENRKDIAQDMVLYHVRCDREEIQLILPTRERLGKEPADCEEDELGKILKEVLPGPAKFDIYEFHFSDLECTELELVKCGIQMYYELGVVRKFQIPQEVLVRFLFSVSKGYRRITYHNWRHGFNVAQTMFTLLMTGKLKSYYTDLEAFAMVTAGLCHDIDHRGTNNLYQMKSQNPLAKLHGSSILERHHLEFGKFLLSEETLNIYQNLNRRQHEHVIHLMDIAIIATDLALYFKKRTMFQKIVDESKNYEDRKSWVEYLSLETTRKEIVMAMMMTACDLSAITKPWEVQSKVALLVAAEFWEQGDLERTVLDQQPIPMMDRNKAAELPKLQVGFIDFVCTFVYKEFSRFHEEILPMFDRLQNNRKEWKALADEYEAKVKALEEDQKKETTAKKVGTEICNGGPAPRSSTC

SMILES: O=c1ccn2c3c(cccc13)Nc1ccccc1-2 [Example 14, 3H,7H-pyrido[3,2,1-depphenazin-3-one]
body weights and general symptoms [1]: nothing abnormal
death of animals until the next day after the end of administration [1]: none of the animals were found to be dead

SMILES: O=c1c(Cc2cccnc2)cn2c3c(cc(OCCN4CCCCC4)cc13)Sc1ccc(Br)cc1-2 [Example 50]
melting point: 166.5 to 169 °C

SMILES: O=c1c(Cc2cccnc2)cn2c3c(cc(OCCCO)cc13)Sc1cc(Br)ccc1-2
melting point: 215.7 to 218.4 °C

SMILES: O=c1c(Cc2ccccc2)cn2c3c(cc(OCCCO)cc13)Sc1ccc(Br)cc1-2
melting point: 152 to 168.3 °C

SMILES: COc1cc2c3c(c1)c(=O)c(Cc1ccccc1)cn3-c1cc(Br)ccc1S2
melting point: 218.1 to 219.3 °C

SMILES: O=c1c(Cc2ccccc2)cn2c3c(cc(O)cc13)Sc1ccc(Br)cc1-2
melting point: 268.1 to 274.3 °C

SMILES: CC(=O)N1c2ccccc2-n2cc(Cc3ccccc3)c(=O)c3cccc1c32 [Example 10, 7-acetyl-2-benzyl-3H,7H-pyrido[3,2,1-de]phenazin-3-one]
body weights and general symptoms [1]: nothing abnormal
death of animals until the next day after the end of administration [1]: none of the animals were found to be dead

SMILES: O=c1c(Cc2cccnc2)cn2c3cc(Br)ccc3c(=O)c3cc(OCc4cccnc4)cc1c32 [Example 35, 10-bromo-2-(3-pyridylmethyl)-5-(3-pyridylmethyloxy)-3H,7H-pyrido[3,2,1-de]acridin-3,7-dione]
pIC50 (PDE type V): 8.74
melting point: 262.4 to 264.6 °C
pIC50 (PDE type VI): 7.82

SMILES: O=c1c(Cc2cccnc2)cn2c3c(cccc13)Oc1ccccc1-2 [Example 4, 2-(3-pyridylmethyl)-3H-pyrido[3,2,1-kl]phenoxazin-3-one]
body weights and general symptoms [1]: nothing abnormal
death of animals until the next day after the end of administration [1]: none of the animals were found to be dead

SMILES: O=c1c(Cc2cccnc2)cn2c3c(cc(OCc4ccncc4)cc13)Sc1ccc(Br)cc1-2 [Example 43, 10-bromo-2-(3-pyridylmethyl)-5-(4-pyridylmethyloxy)-3H-pyrido[3,2,1-kl]phenothiazin-3-one]
pIC50 (PDE type V): 8.55
melting point: 194.2 to 196.1 °C
pIC50 (PDE type VI): 7.44

SMILES: CN(C)CCCOc1cc2c3c(c1)c(=O)c(Cc1cccnc1)cn3-c1cc(Br)ccc1S2
melting point: 160.3 to 163.3 °C

SMILES: CS(=O)(=O)O.CS(=O)(=O)O.O=c1c(Cc2cccnc2)cn2c3c(cc(OCc4cccnc4)cc13)Sc1ccc(Br)cc1-2 [Example 81, 10-bromo-2-(3-pyridylmethyl)-5-(3-pyridylmethyloxy)-3H-pyrido[3,2,1-kl]phenothiazin-3-one dimethanesulfonate]
MRT (in vivo): 48 to 60 min
Tmax (in vivo): 12 to 30 min
melting point: 238.7 to 242.3 °C
absorption by intranasal administration [2]: rapid and effective absorption
Tmax and MRT in comparison with oral administration ([2]; intranasal administration): shortened
duration ([2]; intranasal administration): proper duration
first-pass effect ([2]; intranasal administration): no first-pass effect
MAT ([2]; intranasal administration, dose 0.3 mg/kg): 0.2 ˜ 0.3 hr

SMILES: CC(C)N(CCOc1cc2c3c(c1)c(=O)c(Cc1cccnc1)cn3-c1cc(Br)ccc1S2)C(C)C [Example 51]
pIC50 (PDE type V): 7.96
pIC50 (PDE type VI): 6.74

SMILES: O=c1c(Cc2cccnc2)cn2c3c(cc(OCc4ccccn4)cc13)Sc1ccc(Br)cc1-2 [Example 44, 10-bromo-2-(3-pyridylmethyl)-5-(2-pyridylmethyloxy)-3H-pyrido[3,2,1-kl]phenothiazin-3-one]
melting point: 94.6 to 96.4 °C

SMILES: O=c1c(Cc2cccnc2)cn2c3ccccc3c(=O)c3cccc1c32 [Example 18, 2-(3-pyridylmethyl)-3H,7H-pyrido[3,2,1-de]acridin-3,7-dione]
body weights and general symptoms [1]: nothing abnormal
death of animals until the next day after the end of administration [1]: none of the animals were found to be dead

SMILES: O=c1c(Cc2cccnc2)cn2c3c(cc(OCCCO)cc13)Sc1ccc(Br)cc1-2
melting point: 189.1 to 191.3 °C

SMILES: O=c1c(Cc2cccnc2)cn2c3c(cc(OCc4cccnc4)cc13)Sc1ccc(Br)cc1-2 [Example 39, 10-bromo-2-(3-pyridylmethyl)-5-(3-pyridylmethyloxy)-3H-pyrido[3,2,1-kl]phenothiazin-3-one]
pIC50 (PDE type V): 8.42
melting point: 170.8 to 172.1 °C
pIC50 (PDE type VI): 7.21
abnormalities in nasal mucosa during the experimental period [3]: no abnormalities
irritativeness from the observation at drug administration [3]: no irritativeness

SMILES: COc1cc2c3c(c1)c(=O)c(C)cn3-c1cc(Br)ccc1S2
melting point: 231.7 to 233.7 °C

SMILES: CCCc1nn(C)c2c(=O)[nH]c(-c3cc(S(=O)(=O)N4CCN(C)CC4)ccc3OCC)nc12 [Sildenafil, 5-[2-ethoxy-5-(4-methylpiperazin-1-ylsulphonyl)phenyl]-1-methyl-3-propyl-6,7-dihydro-1H-pyrazolo[4,3-d]pyrimidin-7-one citrate]
pIC50 (PDE type III): 4.89

SMILES: Cc1cn2c3c(cc(OCCCO)cc3c1=O)Sc1ccc(Br)cc1-2
melting point: 188.9 to 197.8 °C

Continued, values first:

melting point: 137.3 to 138.1 °C
SMILES: COc1cc2c3c(c1)c(=O)c(Cc1cccnc1)cn3-c1ccc(Br)cc1S2

melting point: 280 °C (dec.)
SMILES: O=c1ccn2c3ccc(Cl)cc3c3cncc1c32

melting point: 232.8 to 234.5 °C
SMILES: CN1c2ccccc2-n2ccc(=O)c3cccc1c32

melting point: 165 °C (dec.)
SMILES: O=c1c(Cc2cccnc2)cn2c3cc(Br)ccc3c(=O)c3cc(OCCCO)cc1c32 [Example 34, 10-bromo-5-(3-hydroxypropyloxy)-2-(3-pyridylmethyl)-3H,7H-pyrido[3,2,1-de]acridin-3,7-dione]

melting point: 297.4 °C (dec.)
SMILES: O=c1c(Cc2cccnc2)cn2c3c(cc(O)cc13)Sc1ccc(Br)cc1-2

melting point: 275 °C (dec.)
SMILES: CC(=O)N1c2ccccc2-n2ccc(=O)c3cccc1c32

melting point: > 300 °C
SMILES: Cc1cn2c3c(cc(O)cc3c1=O)Sc1ccc(Br)cc1-2

melting point: > 300 °C
SMILES: O=c1ccn2c3c(cc(Cl)cc13)Sc1cc(Cl)ccc1-2

melting point: 277.1 to 280.3 °C
SMILES: COc1cc2c3c(c1)c(=O)c(Cc1cccnc1)cn3-c1cc(Br)ccc1O2

melting point: 211.3 °C (dec.)
SMILES: O=c1ccn2c3cnccc3c3cccc1c32

melting point: 247.5 to 251.1 °C
SMILES: COc1cc2c(=O)c(Cc3cccnc3)cn3c4cc(Br)ccc4c(=O)c(c1)c23

melting point: 185.7 to 187.4 °C
SMILES: COc1cc2c3c(c1)c(=O)c(Cc1cccnc1)cn3-c1cc(Br)ccc1S2

melting point: > 300 °C
SMILES: O=c1ccn2c3c(cc(Cl)cc13)Oc1cc(Cl)ccc1-2

melting point: > 300 °C
SMILES: O=c1c(Cc2cccnc2)cn2c3cc(Br)ccc3c(=O)c3cc(O)cc1c32

melting point: 206.6 to 210.7 °C
SMILES: COc1cc2c3c(c1)c(=O)c(Cc1cncnc1)cn3-c1cc(Br)ccc1S2
